Laboratory results as given in patent US9878986B2, “Compounds for selective histone deacetylase inhibitors, and pharmaceutical composition comprising the same” (CHONG KUN DANG PHARMACEUTICAL CORP., priority 2013, dated 2018).

Experiments:
[1] = biological target: T1, HDAC 4 (Homo sapiens, UniProt P56524); assay: HDAC panel by Reaction Biology Corp., HDAC 4; assay type: biochemical; settings: read-out: HDAC inhibitory activities, HDAC 4
T1 construct: Reaction Biology Corp
Description: (§1) The inhibitory activities of Compounds 255 and 374 on all HDACs were confirmed (by Reaction Biology Corp.).

[2] = biological target: T2, HDAC 7 (Homo sapiens, UniProt Q8WUI4); assay: HDAC panel by Reaction Biology Corp., HDAC 7; assay type: biochemical; settings: read-out: HDAC inhibitory activities, HDAC 7
T2 construct: Reaction Biology Corp
T2 sequence (Q8WUI4 1-952): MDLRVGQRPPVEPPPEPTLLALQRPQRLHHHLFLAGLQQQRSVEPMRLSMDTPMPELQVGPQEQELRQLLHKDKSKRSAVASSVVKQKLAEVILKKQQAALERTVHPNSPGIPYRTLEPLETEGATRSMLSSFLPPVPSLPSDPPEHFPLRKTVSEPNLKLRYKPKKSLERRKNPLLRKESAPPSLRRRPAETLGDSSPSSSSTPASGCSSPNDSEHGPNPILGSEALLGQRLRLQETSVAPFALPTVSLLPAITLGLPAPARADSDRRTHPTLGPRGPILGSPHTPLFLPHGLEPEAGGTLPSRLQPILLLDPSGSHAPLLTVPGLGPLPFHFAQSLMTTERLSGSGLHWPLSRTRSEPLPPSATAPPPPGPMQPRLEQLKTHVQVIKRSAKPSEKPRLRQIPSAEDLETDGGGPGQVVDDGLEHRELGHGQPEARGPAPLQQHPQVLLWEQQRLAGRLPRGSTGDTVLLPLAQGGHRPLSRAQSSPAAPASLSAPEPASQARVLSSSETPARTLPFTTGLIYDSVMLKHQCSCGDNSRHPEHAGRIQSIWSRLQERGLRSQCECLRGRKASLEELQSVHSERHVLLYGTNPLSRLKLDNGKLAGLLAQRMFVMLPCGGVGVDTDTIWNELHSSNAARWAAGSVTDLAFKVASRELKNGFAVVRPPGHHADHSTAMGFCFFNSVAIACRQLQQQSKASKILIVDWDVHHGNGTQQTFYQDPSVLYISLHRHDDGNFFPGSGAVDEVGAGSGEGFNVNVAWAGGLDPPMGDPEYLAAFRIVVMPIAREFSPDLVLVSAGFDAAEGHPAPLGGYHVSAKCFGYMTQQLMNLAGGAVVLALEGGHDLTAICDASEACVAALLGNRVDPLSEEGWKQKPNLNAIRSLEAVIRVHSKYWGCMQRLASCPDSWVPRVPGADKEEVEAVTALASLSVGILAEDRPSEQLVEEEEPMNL
Description: as §1

[3] = biological target: T3, HDAC 8 (Homo sapiens, UniProt Q9BY41); assay: HDAC panel by Reaction Biology Corp., HDAC 8; assay type: biochemical; settings: read-out: HDAC inhibitory activities, HDAC 8
T3 construct: Reaction Biology Corp
T3 sequence (Q9BY41 1-377): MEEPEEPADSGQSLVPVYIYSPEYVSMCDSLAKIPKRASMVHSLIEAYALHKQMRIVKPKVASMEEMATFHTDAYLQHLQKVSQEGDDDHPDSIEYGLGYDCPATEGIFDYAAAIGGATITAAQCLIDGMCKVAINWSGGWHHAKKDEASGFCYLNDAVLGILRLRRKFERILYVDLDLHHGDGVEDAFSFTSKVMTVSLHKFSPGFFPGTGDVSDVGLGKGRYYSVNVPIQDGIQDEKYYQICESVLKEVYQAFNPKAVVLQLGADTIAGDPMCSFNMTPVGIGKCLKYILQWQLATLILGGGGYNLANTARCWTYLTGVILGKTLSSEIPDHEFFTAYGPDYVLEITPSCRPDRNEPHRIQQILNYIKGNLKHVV
Description: as §1

[4] = tested on: tubulin acetylation (HDAC6) in RPMI8226 cells; assay: Acetylation of Tubulin in cells by Western blot; assay type: cell-based; settings: for concentration at which tubulin acetylation (HDAC6) was expressed: 24 hours
Protocol: (§2) To determine the selectivity for HDAC6 in cells, the acetylation levels of Tubulin, Histone H3 and Histone H4 depending on the concentration of compounds were measured by Western blot.
(§3) RPMI8226 (1.0×10^6 cells/well) cells were seeded on six-well plates and treated with drugs (Compounds 255 and 374) at each concentration. After 24 hours, the proteins were extracted with RIPA buffer and quantified by the Bradford method. 25 μg of protein was lysed in sample buffer, electrophoresed on a 4-12% gradient gel, and then transferred to nitrocellulose membranes for 50 minutes. Then transferred protein was blocked with 5% skim milk for 1 hour. Anti-acetyl H3 (1:2,000), anti-acetyl H4 (1:5,000), anti-acetyl tubulin (1:5,000), and anti-β-actin antibody (1:10,000) were added into 5% skim milk, and the membranes were immersed in the skim milk, reacted at 4° C. for 16 hours, and then washed three times for 10 minutes each with 1×TBS-T. Then, IgG-HRP antibody (1:5,000) was added into 5% skim milk, and then the membranes were immersed in the skim milk, reacted at room temperature for 40 minutes, and then washed three times for […] each with 1×TBS-T. Then, the acetylation levels were determined with a LAS 3000 using ECL solution.
The acetylation of tubulin, histone H3 and Histone H4 on RPMI8226 cells (1.0×10^6 cells/well) derived from myeloma was determined in the same manner as the cell determination in Example 1.

[5] = tested on: histone acetylation (HDAC1) in RPMI8226 cells; assay: Acetylation of Histone H3 and Histone H4 in cells by Western blot; assay type: cell-based; settings: 24 hours
Protocol: as §2
as §3, with “solution. […]” for “solution.”

[6] = tested on: collagen-induced arthritis models; assay: Collagen-induced arthritis models; assay type: in vivo, DBA/1J mice; settings: for arthritis symptoms improved by: versus vehicle group
Protocol: An emulsion was prepared by mixing bovine collagen type II (Chondrex) and complete Freund's adjuvant (Chondrex) at a ratio of 1:1 until the […] using a 1 ml pipette. Each 100 μL of emulsion was intradermally injected into the tail of DBA/1J mice for the first immunization. After 21 days, an emulsion was prepared by mixing bovine collagen type II and incomplete Freund's adjuvant (Chondrex) at a ratio of 1:1 by the same method as above. Each of 100 μL of emulsion was intradermally injected into the upper part of the tail of DBA/1J mice for the second boosting immunization. After the second boosting immunization, the mice were grouped according to body weight, the test drug was administered to each group, and the effects of the test drugs were measured by measuring the clinical score and the body weight. The clinical scores were assigned from 0 to 4, and the total clinical score was determined by evaluating the feet of each mouse and summing up the scores (normal: 0, most severe edema: 16). That is, the efficacy in the arthritis models was evaluated with the severity of edema of the joint, and a higher score was assigned to more severe edema.

T1 sequence (P56524 whole entry): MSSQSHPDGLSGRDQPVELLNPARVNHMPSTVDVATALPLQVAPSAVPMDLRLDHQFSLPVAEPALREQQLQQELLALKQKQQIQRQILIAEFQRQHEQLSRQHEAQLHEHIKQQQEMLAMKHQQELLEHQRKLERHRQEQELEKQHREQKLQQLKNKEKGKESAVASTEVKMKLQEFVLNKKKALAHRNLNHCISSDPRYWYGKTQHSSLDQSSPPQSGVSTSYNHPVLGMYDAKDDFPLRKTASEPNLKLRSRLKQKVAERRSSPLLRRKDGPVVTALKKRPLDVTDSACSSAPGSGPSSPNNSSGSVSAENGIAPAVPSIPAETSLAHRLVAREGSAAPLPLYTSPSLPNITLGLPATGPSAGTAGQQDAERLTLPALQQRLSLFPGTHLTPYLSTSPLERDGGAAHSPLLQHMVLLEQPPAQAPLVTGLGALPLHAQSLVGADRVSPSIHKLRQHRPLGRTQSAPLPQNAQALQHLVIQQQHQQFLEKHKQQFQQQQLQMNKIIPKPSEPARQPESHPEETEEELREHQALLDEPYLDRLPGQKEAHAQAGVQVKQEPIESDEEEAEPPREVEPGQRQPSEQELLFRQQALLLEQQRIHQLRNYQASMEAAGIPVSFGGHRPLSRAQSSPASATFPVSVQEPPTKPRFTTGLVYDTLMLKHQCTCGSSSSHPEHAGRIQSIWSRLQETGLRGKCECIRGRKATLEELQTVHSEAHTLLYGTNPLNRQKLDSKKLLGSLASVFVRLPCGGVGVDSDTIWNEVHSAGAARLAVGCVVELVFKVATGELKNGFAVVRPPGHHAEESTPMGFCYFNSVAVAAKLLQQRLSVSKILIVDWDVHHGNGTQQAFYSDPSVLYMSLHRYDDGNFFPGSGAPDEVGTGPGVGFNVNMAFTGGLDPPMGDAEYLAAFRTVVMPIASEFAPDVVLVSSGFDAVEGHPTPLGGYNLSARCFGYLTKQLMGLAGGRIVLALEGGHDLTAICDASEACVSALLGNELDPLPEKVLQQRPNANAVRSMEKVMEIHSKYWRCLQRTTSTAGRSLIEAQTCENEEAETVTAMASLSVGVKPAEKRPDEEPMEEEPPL

Row | SMILES | IC50 [1] [µM] | IC50 [2] [µM] | IC50 [3] [µM] | cell selectivity (tubulin versus histone acetylation) [4] | concentration at which tubulin acetylation (HDAC6) was expressed [4] | concentration at which histone acetylation (HDAC1) was expressed [5] [µM] | clinical score ([6]; 10 mg/kg twice a day, score 0 to 16, vehicle group 11.6) | clinical score ([6]; 30 mg/kg twice a day, score 0 to 16, vehicle group 11.6) | arthritis symptoms improved by ([6]; 10 and 30 mg/kg twice a day) | arthritis symptoms improved by ([6]; different concentrations (doses not given)) | clinical score ([6]; different concentrations, first value listed (dose not given), vehicle group 6.7) | clinical score ([6]; different concentrations, second value listed (dose not given), vehicle group 6.7)
1 | O=C(NO)c1ccc(CN(C(=O)N2CCOCC2)c2cccc(Br)c2)cc1 [Compound 255, N-(3-bromophenyl)-N-(4-(hydroxycarbamoyl)benzyl)morpholine-4-carboxamide] | 6.86 | 1.5 | 0.65 | excellent cell selectivity | about 10 nM | 1 | 5.2 | 6.5 | more than 50% | – | – | –
2 | O=C(NO)c1ccc(CN(C(=O)N2CCOCC2)c2cccc(C(F)(F)F)c2)cc1 [Compound 374, N-(4-(hydroxycarbamoyl)benzyl)-N-(3-(trifluoromethyl)phenyl)morpholine-4-carboxamide] | 16.4 | 5.25 | 2.07 | excellent cell selectivity | about 10 nM | 10 | – | – | – | more than 60% | 2.8 | 2.5
